From patent US10849864B2, “Combinations and methods for the treatment and/or prevention of fungal infections” (Novan, Inc., priority 2015, dated 2020)
Structures can show the parent of a compound that is named as a salt.

Tested on: Tricophyton rubrum (ATCC #28188)
Assay: MIC evaluation of individual test materials (Macrodilution Broth Method, Phase I)
Type: cell-based
Conditions: Trichophyton rubrum, ATCC28188; test material alone; T. rubrum inoculum 1.775 × 10^3 CFU/mL per tube; read-out: Minimum Inhibitory Concentration (MIC) (as product concentration)
Method: The purpose of this study was to evaluate the synergistic in vitro interactions of one drug pair when challenged with Tricophyton rubrum (ATCC #28188).
A minimum inhibitory concentration (MIC) evaluation was performed for each test material versus T. rubrum using modifications of the Macrodilution Broth Method outlined in the CLSI (clinical laboratory standards institute) Document M07-A9: Methods for dilution antimicrobial susceptibility tests for bacteria that grow aerobically, 9th edition. The test materials were terbinafine hydrochloride and Nitricil™ NVN1, which is a NO-releasing diazeniumdiolate-functionalized co-condensed silica from Novan, Inc.
The challenge strain of T. rubrum was exposed to a series of doubling dilutions of each test material. […]
An initial population of T. rubrum was prepared containing approximately 10^3 CFU (colony forming units)/mL in appropriate fungal growth media (RPMI). This initial population density was precisely determined by preparing ten-fold dilutions and plating them on the appropriate solid fungal growth media for colony enumeration. […] Following incubation, the colonies were manually counted to determine the precise number of colonies present in the initial population. […]
The tubes were visually assessed on the basis of turbidity in order to determine fungal growth.

- MIC: 0.012 µg/mL
Compound: CN(C/C=C/C#CC(C)(C)C)Cc1cccc2ccccc12 [Terbinafine hydrochloride, terbinafine hydrochloride]
